Data reported in ChEMBL document CHEMBL1140148, “Structure-activity studies on a series of a 2-aminopyrimidine-containing histamine H4 receptor ligands” (J Med Chem, 2008).

What was measured:
[1] = molecular target: T1, Histamine H4 receptor (Homo sapiens, UniProt Q9H3N8); conditions: HEK293
[2] = molecular target: Histamine H4 receptor (Rattus norvegicus) (UniProt Q91ZY1); experiment: Agonist activity at rat histamine H4 receptor expressed in HEK293 cells coexpressing Gqi5 protein assessed as calcium flux by FLIPR assay relative to histamine; format: functional, cell-based
[3] = molecular target: Histamine H4 receptor (Rattus norvegicus, UniProt Q91ZY1); experiment: Agonist activity at rat histamine H4 receptor expressed in HEK293 cells coexpressing Gqi5 protein assessed as calcium flux by FLIPR assay; format: functional, cell-based
[4] = molecular target: T1, Histamine H4 receptor; experiment: Agonist activity at human histamine H4 receptor expressed in HEK293 cells coexpressing Gqi5 protein assessed as calcium flux by FLIPR assay relative to histamine; format: functional, cell-based
[5] = molecular target: T1, Histamine H4 receptor; experiment: Agonist activity at human histamine H4 receptor expressed in HEK293 cells coexpressing Gqi5 protein assessed as calcium flux by FLIPR assay; format: functional, cell-based
[6] = molecular target: Histamine H4 receptor (Rattus norvegicus) (UniProt Q91ZY1); conditions: HEK293

T1 sequence (Q9H3N8 whole entry): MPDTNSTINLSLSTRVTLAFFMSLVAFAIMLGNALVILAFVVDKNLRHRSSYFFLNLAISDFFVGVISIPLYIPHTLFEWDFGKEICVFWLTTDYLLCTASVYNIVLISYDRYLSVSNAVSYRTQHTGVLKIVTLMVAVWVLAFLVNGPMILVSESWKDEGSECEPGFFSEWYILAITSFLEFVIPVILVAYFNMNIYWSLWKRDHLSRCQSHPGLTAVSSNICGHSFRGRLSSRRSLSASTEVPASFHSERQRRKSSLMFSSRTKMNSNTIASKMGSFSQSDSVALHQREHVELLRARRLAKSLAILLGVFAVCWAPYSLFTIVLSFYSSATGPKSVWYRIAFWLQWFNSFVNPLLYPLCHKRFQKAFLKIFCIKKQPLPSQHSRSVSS
Chain of Histamine H4 receptor (Rattus norvegicus) (Q91ZY1 whole entry): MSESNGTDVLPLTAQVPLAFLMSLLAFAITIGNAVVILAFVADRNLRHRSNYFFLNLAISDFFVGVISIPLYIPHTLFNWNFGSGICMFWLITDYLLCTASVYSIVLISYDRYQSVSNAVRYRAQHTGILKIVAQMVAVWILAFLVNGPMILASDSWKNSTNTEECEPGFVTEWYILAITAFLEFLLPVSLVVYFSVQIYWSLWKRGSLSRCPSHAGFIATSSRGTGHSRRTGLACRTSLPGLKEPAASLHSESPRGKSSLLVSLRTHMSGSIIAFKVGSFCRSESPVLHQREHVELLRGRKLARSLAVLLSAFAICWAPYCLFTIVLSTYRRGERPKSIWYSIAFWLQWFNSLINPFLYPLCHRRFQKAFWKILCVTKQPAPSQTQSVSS
Chain of Histamine H4 receptor (Rattus norvegicus, UniProt Q91ZY1) (Q91ZY1 whole entry): as above

Compound	pKb [1]	Efficacy [2]	EC50 [3]	Efficacy [4]	EC50 [5]	pKb [6]
CN1CCN(c2cc(Cl)nc(N)n2)CC1	4.75	65%	17000 nM			
CN1CCN(c2cc(N(C)C)nc(N)n2)CC1	6.85	59%	3020 nM			
COc1ccncc1-c1cc(N2CCN(C)CC2)nc(N)n1	7.39	76%	234 nM			
CC(C)(C)c1cc(N2CCNCC2)nc(-n2cccc2)n1	6.75	84%	2290 nM			
CN1CCN(c2cc(-c3cnn(C)c3)nc(N)n2)CC1	7.31	78%	219 nM			
Cc1cccc(-c2cc(N3CCN(C)CC3)nc(N)n2)c1	8.62	59%	42.7 nM			
CC1CCN(c2cc(C(C)(C)C)nc(N)n2)CC1	5.2	64%	23400 nM			
COc1ccc(-c2cc(N3CCN(C)CC3)nc(N)n2)cc1	8.08	71%	115 nM			
COc1cccc(-c2cc(N3CCN(C)CC3)nc(N)n2)c1	8.12	69%	102 nM			
CN1CCN(c2cc(NCc3ccccc3)nc(N)n2)CC1			490 nM	56%	64.6 nM	
CN1CCN(c2cc(N)nc(C(C)(C)C)n2)CC1	6.28	50%	4680 nM			
Cc1ccccc1-c1cc(N2CCN(C)CC2)nc(N)n1	8.07	60%	178 nM			
COc1ncc(-c2cc(N3CCN(C)CC3)nc(N)n2)cn1	5.91	53%	3240 nM			
CN1CCN(c2cc(O)nc(N)n2)CC1	4.44	92%	1480 nM			
CN1CCN(c2cc(I)nc(N)n2)CC1	6.33	67%	2040 nM			
CCN1CCN(c2cc(C(C)(C)C)nc(N)n2)CC1	7.86	55%	245 nM			
CN1CCN(c2cc(N)cc(-c3ccc(C#N)cc3)n2)CC1	5.05					5.14
CN1CCN(c2cc(-c3cn[nH]c3)nc(N)n2)CC1	8.38	53%	1820 nM			
CN1CCN(c2cc(Sc3ccccc3)nc(N)n2)CC1	5.99	68%	8910 nM			
CN1CCN(c2cc(C(C)(C)C)nc(N(C)C)n2)CC1		88%	18200 nM	100%	11500 nM	
CN1CCN(c2nc(N)nc(C(C)(C)C)n2)CC1	7.04	70%	251 nM			
COc1cnc(N)nc1N1CCN(C)CC1	6.9	65%	631 nM			
CN1CCN(c2cc(C(C)(C)C)nc(Cl)n2)CC1		75%	8710 nM	42%	4900 nM	
CN1CCN(c2cc(N(C)c3ccccc3)nc(N)n2)CC1	6.96					6.1
COc1cc(N2CCN(C)CC2)nc(N)n1	5.53	55%	10500 nM			
CN1CCN(c2cc(Nc3ccccc3)nc(N)n2)CC1	8.18	81%	117 nM			

Compound	pKb [1]	Efficacy [2]	EC50 [3]	Efficacy [4]	EC50 [5]	pKb [6]
COc1c(-c2ccc(C#N)cc2)nc(N)nc1N1CCN(C)CC1	6.04	51%	5130 nM			
CN(C)CCNc1cc(C(C)(C)C)nc(N)n1	6.91	39%	1780 nM			
CN1CCN(c2cc(-n3ccccc3=O)nc(N)n2)CC1		33%	14100 nM	27%	3890 nM	
CN1CCN(c2cc(C(C)(C)C)nc(N)n2)CC1	8.35	64%	67.6 nM			
COc1nc(N2CCN(C)CC2)cc(C(C)(C)C)n1		90%	4680 nM	43%	1200 nM	
CN1CCN(c2cc(N)nc(N)n2)CC1	6.37	71%	219 nM			
CN1CCN(c2ccnc(N)n2)CC1		87%	115 nM	42%	43.7 nM	
CN1CCN(c2cc(N3CCCCC3)nc(N)n2)CC1	8.05	73%	46.8 nM			
CN1CCN(c2cc(-c3c[nH]cn3)nc(N)n2)CC1		77%	389 nM	41%	16.2 nM	
CN1CCN(c2cc(N3CCC(N(C)C)C3)nc(N)n2)CC1 (centres undefined)	5.76	62%	3630 nM			
CNc1cc(N2CCN(C)CC2)nc(N)n1	8.28	93%	490 nM			
CN1CCN(c2cc(-c3cccc(Cl)c3)nc(N)n2)CC1	8.24	50%	31.6 nM			
Cc1cc(N2CCN(C)CC2)nc(N)n1	7.2	77%	363 nM			
CN1CCN(c2cc(-c3ccc(Cl)cc3)nc(N)n2)CC1	8.32	74%	37.2 nM			
CN1CCN(c2cc(-c3cccc(C#N)c3)nc(N)n2)CC1	8.06	48%	234 nM			
Cc1cnc(N)nc1N1CCN(C)CC1	7.07	81%	66.1 nM			
CN1CCN(c2cc(-c3ccncc3)nc(N)n2)CC1	7.38	63%	229 nM			
CN1CCC(c2cc(C(C)(C)C)nc(N)n2)CC1	5.87	55%	3630 nM			
CN1CCN(c2cc(N3CCOCC3)nc(N)n2)CC1	7.16	87%	339 nM			
CN(C)CCOc1cc(C(C)(C)C)nc(N)n1	7.02	67%	302 nM			
CN1CCN(c2cc(N3CCCC3)nc(N)n2)CC1	8.41	79%	69.2 nM			
CN1CCN(c2cc(C(C)(C)C)ncn2)CC1	7.07	79%	933 nM			
CN1CCN(c2cc(-n3ccnc3)nc(N)n2)CC1		56%	7940 nM	31%	2510 nM	
CN1CCN(c2nc(N)ncc2N)CC1		88%	42.7 nM	38%	33.9 nM	
CN1CCN(c2nc(N)cc(C(C)(C)C)n2)CC1	5.82	82%	7940 nM			
COc1ncccc1-c1cc(N2CCN(C)CC2)nc(N)n1		72%	93.3 nM	32%	26.9 nM	

Compound	pKb [1]	Efficacy [2]	EC50 [3]	Efficacy [4]	EC50 [5]	pKb [6]
Cc1ccc(-c2cc(N3CCN(C)CC3)nc(N)n2)cc1	8.06	81%	56.2 nM			
COc1cccc(OC)c1-c1cc(N2CCN(C)CC2)nc(N)n1	6.81	81%	195 nM			
CN1CCN(c2cc(C(C)(C)C)nc(O)n2)CC1	4.39	35%	22900 nM			
CN(C)CCN(C)c1cc(C(C)(C)C)nc(N)n1	5.71	55%	1120 nM			
CN1CCN(c2cc(-c3ccc(I)cc3)nc(N)n2)CC1	7.83	58%	275 nM			
CN1CCN(c2cc(N)nc(-c3ccc(C#N)cc3)c2)CC1	6.86	84%	1860 nM			
CN1CCN(c2cc(-c3ccc4ccccc4c3)nc(N)n2)CC1	7.02	41%	174 nM			
CN1CCN(c2cc(-c3ccc(F)nc3F)nc(N)n2)CC1	8.27	82%	15.5 nM			
CN1CCN(c2cc(-c3cccnc3)nc(N)n2)CC1	7.3	70%	209 nM			
Cc1c(-c2ccc(C#N)cc2)nc(N)nc1N1CCN(C)CC1	7.36	63%	58.9 nM			
CN1CCN(c2cc(-c3ccccc3)nc(N)n2)CC1	8.39		39.8 nM			
CN1CCN(c2cc(N3CCN(C)CC3)nc(N)n2)CC1	6.84	68%	1350 nM			
CN(C)CCN1CCN(c2cc(C(C)(C)C)nc(N)n2)CC1	6.44	66%	2400 nM			
CN1CCN(c2cc(C34CC5CC(CC(C5)C3)C4)nc(N)n2)CC1	7.59	61%	316 nM			
CN1CCN(c2cc(N3CCNC3=O)nc(N)n2)CC1	5.38	27%	12300 nM			
CN1CCN(c2nc(N)ncc2-c2ccccc2)CC1	5.32	72%	8320 nM			
CN(C)CCCN(C)c1cc(C(C)(C)C)nc(N)n1	5.13	40%	9770 nM			
CN1CCN(c2cc(-c3cccc(I)c3)nc(N)n2)CC1	8.27	61%	891 nM			
CNc1nc(N2CCN(C)CC2)cc(C(C)(C)C)n1	6.08	46%	5130 nM			
CN1CCN(c2cc(-c3cn(C)cn3)nc(N)n2)CC1	8.05	91%	102 nM			
CN1CCN(c2cc(-c3ccccc3C#N)nc(N)n2)CC1	6.75	73%	1200 nM			
COc1ccccc1-c1cc(N2CCN(C)CC2)nc(N)n1	8.86	68%	43.7 nM			
CCN(CC)c1cc(N2CCN(C)CC2)nc(N)n1	7.55	90%	355 nM			
CN1CCN(c2cc(-c3cncnc3)nc(N)n2)CC1	5.84	61%	7940 nM			
